“And” between values parts separate entries of the source, which are not always exact repeats. Equal values may be shown once. Where a name gives a salt, the structure may show the parent alone. Read-outs that look alike come from different tables or passages of the source. Marks after values point to notes of the source that are not given here.
Tests used:
[1] = Relative bioavailability of Form (I) and Form (II) in man; type: in vivo
Method: Blood samples were taken at 15 points from time 0 to 24 h post-dosing and plasma concentrations of lercanidipine were determined with a stereoselective analytical method HPLC-MS/MS.

[2] = Hygroscopicity by DVS analysis; type: physicochemical; settings: 25°C, whole RH range tested
Method: The hygroscopicity of both crystalline Forms (I) and (II) was measured with DVS analysis by means of a water absorption analyzer (SURFACE MEASUREMENT SYSTEM, Marion, Buckinghamshire, UK) according to the following working conditions: […]

[3] = Solubility in mixtures of water-ethanol at 25°C and 40°C; type: physicochemical; settings: at both 25°C and 40°C
[4] = Solubility in water and in ethanol at room temperature (UV-Visible spectroscopy); type: physicochemical
From the text: The molar absorptivity had been previously determined in acetonitrile. The same molar absorptivity was considered for the determination in water and in ethanol. Solubility in water certainly depends on pH. The residual solid obtained by filtration of the suspension was immediately analyzed with Raman spectroscopy.

[5] = Bioavailability of crystalline Forms (I) and (II) in dogs; type: in vivo, Beagle dogs
Method: A study was carried out on six Beagle dogs to evaluate the bioavailability of crystalline Forms (I) and (II).
Blood samples were taken at given times and plasma concentrations of lercanidipine were determined with a stereoselective analytical method HPLC-MS/MS, according to the following working conditions;
Lercanidipine was extracted from dog plasma by means of a liquid-liquid extraction with a mixture of n-hexane and ethyl ether. The dry residue of the organic phase was taken up with a mixture of methanol and water and a liquid-phase chromatographic separation (LC) was carried out; the two enantiomers of lercanidipine were separated on a CHIROBIOTIC V column (Vancomycin) (particle size […], column size 150 x 4.6 mm (ASTEC, NJ, USA)) and were detected with a mass spectrometer (MS/MS) by using an electrospray technique.
The analytical method was validated in a concentration range between 0.1 and 20 ng/ml of plasma for both enantiomers. The method has shown to be specific with an accuracy of 15%. The average concentrations of lercanidipine in the tables represent the sum of both enantiomers.

[6] = Dog 1, oral 3 mg/kg, hydrochloride, 3 mg/kg
[7] = Dog 2 (not included in mean), oral 3 mg/kg, hydrochloride, 3 mg/kg
[8] = Dog 3, oral 3 mg/kg, hydrochloride, 3 mg/kg
[9] = Dog 4, oral 3 mg/kg, hydrochloride, 3 mg/kg
[10] = Dog 5, oral 3 mg/kg, hydrochloride, 3 mg/kg
[11] = Mean (n=5, Dog 2 not included), oral 3 mg/kg, hydrochloride, 3 mg/kg

For `COC(=O)C1=C(C)NC(C)=C(C(=O)OC(C)(C)CN(C)CCC(c2ccccc2)c2ccccc2)C1c1cccc([N+](=O)[O-])c1` (single isomer, unassigned) [Form (II), lercanidipine hydrochloride], the “bioequivalence to Form I” value ([1]; 10 mg tablet) was “not bioequivalent to Form I”, the “AUC0-t” value ([1]; 10 mg tablet, single dose, geom. least square mean, 1440 min, hydrochloride) was 10.36 ng·h/mL and the Cmax ([1]; 10 mg tablet, single dose, geom. least square mean, hydrochloride) was 3.22 ng/mL. For the same compound, the Tmax ([1]; 10 mg tablet, single dose, median, hydrochloride) was 2.50* h, the “tmax Point Estimate (T/R), median difference” value ([1]; Test = Form (II) tablet, Reference = Form (I) tablet (Zanedip)) was 0.75** h and the mass variation [2] was < 0.05%. For the same compound, the “water concentration at which the maximum solubility is reached” value [3] was 20%, the “Solubility compared with Form (I)” value [4] was “less soluble than Form (I) in both solvents” and the AUC0-t [5, 6] was 54.59 ng/h/mL. It also gave a Cmax [5, 6] of 18.46 ng/mL, a Tmax [5, 6] of 3.00 h and an AUC0-t [5, 7] of 119.77 ng/h/mL. The Cmax [5, 7] was 52.19 ng/mL, the Tmax [5, 7] was 1.50 h and the AUC0-t [5, 8] was 75.62 ng/h/mL. For the same compound, the Tmax [5, 8] was 1.50 h, the AUC0-t [5, 9] was 173.82 ng/h/mL and the Tmax [5, 9] was 4.00 h. For the same compound, the AUC0-t [5, 10] was 142.34 ng/h/mL, the Cmax [5, 10] was 55.38 ng/mL and the Tmax [5, 10] was 2.00 h. It also gave a Tmax ([5]; Dog 6, oral 3 mg/kg) of 6.00 h, an AUC0-t ([5]; Dog 6, oral 3 mg/kg, hydrochloride, 3 mg/kg) of 61.91 ng/h/mL and an AUC0-t [5, 11] of 104.68 ng/h/mL. For the same compound, the Cmax [5, 11] was 36.17 ng/mL, the Tmax [5, 11] was 3.00 h and the “concentration in plasma of lercanidipine (S+R)” value (from here on “concentration in plasma”) ([5]; Time 0 h, Dog 1, oral 3 mg/kg) was 0.00 ng/mL. For the same compound, the “concentration in plasma” value ([5]; Time 0 h, Dog 2 (not included in mean), oral 3 mg/kg) was 0.00 ng/mL, the “concentration in plasma” value ([5]; Time 0 h, Dog 3, oral 3 mg/kg) was 0.00 ng/mL and the “concentration in plasma” value ([5]; Time 0 h, Dog 4, oral 3 mg/kg) was 0.00 ng/mL. The “concentration in plasma” value ([5]; Time 0 h, Dog 5, oral 3 mg/kg) was 0.00 ng/mL, the “concentration in plasma” value ([5]; Time 0 h, Dog 6, oral 3 mg/kg) was 0.00 ng/mL and the “concentration in plasma” value ([5]; Time 0 h, Mean (Dog 2 not included), oral 3 mg/kg) was 0.00 ng/mL. For the same compound, the “concentration in plasma” value ([5]; Time 0.5 h, Dog 1, oral 3 mg/kg, hydrochloride, 3 mg/kg) was 0.00 ng/mL, the “concentration in plasma” value ([5]; Time 0.5 h, Dog 2 (not included in mean), oral 3 mg/kg, hydrochloride, 3 mg/kg, 30 min) was 22.67 ng/mL and the “concentration in plasma” value ([5]; Time 0.5 h, Dog 4, oral 3 mg/kg) was 0.00 ng/mL. For the same compound, the “concentration in plasma” value ([5]; Time 0.5 h, Dog 5, oral 3 mg/kg) was 0.00 ng/mL, the “concentration in plasma” value ([5]; Time 0.5 h, Dog 6, oral 3 mg/kg) was 0.00 ng/mL and the “concentration in plasma” value ([5]; Time 1 h, Dog 1, oral 3 mg/kg, hydrochloride, 3 mg/kg) was 0.00 ng/mL. For the same compound, the “concentration in plasma” value ([5]; Time 1 h, Dog 2 (not included in mean), oral 3 mg/kg, hydrochloride, 3 mg/kg, 60 min) was 52.13 ng/mL, the “concentration in plasma” value ([5]; Time 1 h, Dog 6, oral 3 mg/kg) was 0.00 ng/mL and the “concentration in plasma” value ([5]; Time 1 h, Mean (Dog 2 not included), oral 3 mg/kg, hydrochloride, 3 mg/kg, 60 min) was 5.08 ng/mL. The “concentration in plasma” value ([5]; Time 1.5 h, Dog 1, oral 3 mg/kg, hydrochloride, 3 mg/kg, 90 min) was 0.23 ng/mL, the “concentration in plasma” value ([5]; Time 1.5 h, Dog 2 (not included in mean), oral 3 mg/kg, hydrochloride, 3 mg/kg, 90 min) was 52.19 ng/mL and the “concentration in plasma” value ([5]; Time 1.5 h, Dog 3, oral 3 mg/kg, hydrochloride, 3 mg/kg, 90 min) was 19.78 ng/mL. For the same compound, the “concentration in plasma” value ([5]; Time 1.5 h, Dog 5, oral 3 mg/kg, hydrochloride, 3 mg/kg, 90 min) was 32.69 ng/mL, the “concentration in plasma” value ([5]; Time 1.5 h, Mean (Dog 2 not included), oral 3 mg/kg, hydrochloride, 3 mg/kg, 90 min) was 18.32 ng/mL and the “concentration in plasma” value ([5]; Time 2 h, Dog 2 (not included in mean), oral 3 mg/kg, hydrochloride, 3 mg/kg, 120 min) was 35.45 ng/mL. For the same compound, the “concentration in plasma” value ([5]; Time 2 h, Dog 3, oral 3 mg/kg, hydrochloride, 3 mg/kg, 120 min) was 17.81 ng/mL, the “concentration in plasma” value ([5]; Time 2 h, Dog 4, oral 3 mg/kg, hydrochloride, 3 mg/kg, 120 min) was 38.10 ng/mL and the “concentration in plasma” value ([5]; Time 2 h, Dog 5, oral 3 mg/kg, hydrochloride, 3 mg/kg, 120 min) was 55.38 ng/mL. The “concentration in plasma” value ([5]; Time 2 h, Dog 6, oral 3 mg/kg, hydrochloride, 3 mg/kg, 120 min) was 10.19 ng/mL, the “concentration in plasma” value ([5]; Time 2 h, Mean (Dog 2 not included), oral 3 mg/kg, hydrochloride, 3 mg/kg, 120 min) was 25.82 ng/mL and the “concentration in plasma” value ([5]; Time 3 h, Dog 1, oral 3 mg/kg, hydrochloride, 3 mg/kg, 180 min) was 18.46 ng/mL. For the same compound, the “concentration in plasma” value ([5]; Time 3 h, Dog 2 (not included in mean), oral 3 mg/kg, hydrochloride, 3 mg/kg, 180 min) was 17.43 ng/mL, the “concentration in plasma” value ([5]; Time 3 h, Dog 3, oral 3 mg/kg, hydrochloride, 3 mg/kg, 180 min) was 15.80 ng/mL and the “concentration in plasma” value ([5]; Time 3 h, Mean (Dog 2 not included), oral 3 mg/kg, hydrochloride, 3 mg/kg, 180 min) was 23.46 ng/mL. For the same compound, the “concentration in plasma” value ([5]; Time 4 h, Dog 1, oral 3 mg/kg, hydrochloride, 3 mg/kg, 240 min) was 14.83 ng/mL, the “concentration in plasma” value ([5]; Time 4 h, Dog 2 (not included in mean), oral 3 mg/kg, hydrochloride, 3 mg/kg, 240 min) was 5.17 ng/mL and the “concentration in plasma” value ([5]; Time 4 h, Dog 4, oral 3 mg/kg, hydrochloride, 3 mg/kg, 240 min) was 52.64 ng/mL. The “concentration in plasma” value ([5]; Time 4 h, Dog 6, oral 3 mg/kg, hydrochloride, 3 mg/kg, 240 min) was 13.24 ng/mL, the “concentration in plasma” value ([5]; Time 4 h, Mean (Dog 2 not included), oral 3 mg/kg, hydrochloride, 3 mg/kg, 240 min) was 23.69 ng/mL and the “concentration in plasma” value ([5]; Time 6 h (last sampling time), Mean (Dog 2 not included), oral 3 mg/kg, hydrochloride, 3 mg/kg, 360 min) was 10.9 ± 6.8 ng/mL and 10.89 ng/mL. The “concentration in plasma” value ([5]; Time 6 h, Dog 1, oral 3 mg/kg, hydrochloride, 3 mg/kg, 360 min) was 8.05 ng/mL, the “concentration in plasma” value ([5]; Time 6 h, Dog 2 (not included in mean), oral 3 mg/kg, hydrochloride, 3 mg/kg, 360 min) was 4.50 ng/mL and the “concentration in plasma” value ([5]; Time 6 h, Dog 3, oral 3 mg/kg, hydrochloride, 3 mg/kg, 360 min) was 3.62 ng/mL. The “concentration in plasma” value ([5]; Time 6 h, Dog 4, oral 3 mg/kg, hydrochloride, 3 mg/kg, 360 min) was 17.46 ng/mL, the “concentration in plasma” value ([5]; Time 6 h, Dog 5, oral 3 mg/kg, hydrochloride, 3 mg/kg, 360 min) was 6.76 ng/mL and the “concentration in plasma” value ([5]; Time 6 h, Dog 6, oral 3 mg/kg, hydrochloride, 3 mg/kg, 360 min) was 18.56 ng/mL. It also gave a Cmax ([5]; dog, plasma, po, 3 mg/kg, Dog 3, read-out: Cmax) of 19.8 ng/mL, a Cmax ([5]; dog, plasma, po, 3 mg/kg, Dog 4, read-out: Cmax) of 52.6 ng/mL and a Cmax ([5]; dog, plasma, po, 3 mg/kg, Dog 6, read-out: Cmax) of 18.6 ng/mL. The concentration at 0.5 h ([5]; dog, plasma, po, 3 mg/kg, Time 0.5 h, Dog 3, read-out: concentration in plasma of lercanidipine (S+R)) was 6.99 ng/mL, the concentration at 0.5 h ([5]; dog, plasma, po, 3 mg/kg, Time 0.5 h, Mean (Dog 2 not included), read-out: concentration in plasma of lercanidipine (S+R)) was 1.4 ng/mL and the concentration at 1 h ([5]; dog, plasma, po, 3 mg/kg, Time 1 h, Dog 3, read-out: concentration in plasma of lercanidipine (S+R)) was 16.6 ng/mL. It also gave a concentration at 1 h ([5]; dog, plasma, po, 3 mg/kg, Time 1 h, Dog 4, read-out: concentration in plasma of lercanidipine (S+R)) of 5.5 ng/mL, a concentration at 1 h ([5]; dog, plasma, po, 3 mg/kg, Time 1 h, Dog 5, read-out: concentration in plasma of lercanidipine (S+R)) of 3.28 ng/mL and a concentration at 1.5 h ([5]; dog, plasma, po, 3 mg/kg, Time 1.5 h, Dog 4, read-out: concentration in plasma of lercanidipine (S+R)) of 35.4 ng/mL. It also gave a concentration at 1.5 h ([5]; dog, plasma, po, 3 mg/kg, Time 1.5 h, Dog 6, read-out: concentration in plasma of lercanidipine (S+R)) of 3.49 ng/mL, a concentration at 2 h ([5]; dog, plasma, po, 3 mg/kg, Time 2 h, Dog 1, read-out: concentration in plasma of lercanidipine (S+R)) of 7.63 ng/mL and a concentration at 3 h ([5]; dog, plasma, po, 3 mg/kg, Time 3 h, Dog 4, read-out: concentration in plasma of lercanidipine (S+R)) of 28.4 ng/mL. It also gave a concentration at 3 h ([5]; dog, plasma, po, 3 mg/kg, Time 3 h, Dog 5, read-out: concentration in plasma of lercanidipine (S+R)) of 40.6 ng/mL, a concentration at 4 h ([5]; dog, plasma, po, 3 mg/kg, Time 4 h, Dog 3, read-out: concentration in plasma of lercanidipine (S+R)) of 14.1 ng/mL and a concentration at 4 h ([5]; dog, plasma, po, 3 mg/kg, Time 4 h, Dog 5, read-out: concentration in plasma of lercanidipine (S+R)) of 23.7 ng/mL.
